Experiments:
[1] = molecular target: muscarinic receptors (cerebral cortex); assay: Muscarinic receptor binding (inhibition of specific 3H-N-methylscopolamine binding), cerebral cortex; parameters: species or system rat (male Sprague-Dawley); details: rat cerebral cortex homogenate 1:3000, 3H-NMS, 30° C., 45 minutes; read-out: Receptor Binding Tests IC50, Cortex
Procedure: (§1) Determination of the IC50 value
(§2) The organ donors were male Sprague-Dawley rats weighing from 180 to 220 gm. After the removal of the stomach and cerebral cortex, all the other steps were carried out in ice-cold HepesHCl buffer (pH 7.4:100 m molar NaCl, 10 m molr MgCl2). Smooth muscle of the fundic section of the stomach was separated from the gastric mucosa and subjected to preliminary homogenization. All the organs were then homogenized in a potter apparatus.
(§3) For the binding test, the homogenized organ preparations were diluted as follows:
The homogenized organ preparations were incubated in an Eppendorf centrifugal tube at 30° C. with a specific concentration of the radioligand and a concentration series of the non-radioactive test substances. The period of incubation was 45 minutes. 0.3N molar ^3 H-N-methylscopolamine (^3 H-NMS) was used as the radioligand. After the incubation had been stopped by centrifuging at 14,000 g, the radioactivity in the pellet was determined. It represents the sum of specific and non-specific binding of ^3 H-NMS. The proportion of non-specific binding was defined as the radioactivity which was bound in the presence of 1μ molar quinuclidinyl benzylate. Four measurements were taken in each case. The IC50 values of the non-labelled test substances were determined graphically. […]

[2] = system: oxotremorine-induced secretion of saliva; assay: Oxotremorine test: inhibition of oxotremorine-induced salivation; format: in vivo, rat (Crl:COBS-CD(SD) BR, female albino); details: Rattus norvegicus, iv, read-out: Oxotremorine Tests: Inhibition of Salivation ED50
Procedure: Oxotremorine, a specific agonist at muscarinic receptors, produces lesions of the gastric mucosa in rats and increases the secretion of saliva. This test model was chosen to be able to determine any selective activity of an antimuscarinic substance on the stomach.
Ten female albino rats (of the Crl:COBS-CD(SD) BR strain) with a body weight of from 120 to 150 gm were used for each treatment group. These rats were given free access to drinking water but were deprived of food for 24 hours before the start of the test.
To determine, in preliminary tests, the muscarinic effect of oxotremorine on each of the symptoms investigated, a dosage-activity curve was plotted with at least three doses for each symptom.
When testing antimuscarinic substances, the oxotremorine dosage used was the dosage which triggered the symptom to be influenced in 90 to 100% of the animals in the preliminary tests.
Secretion of saliva: 0.083 mg/kg i.v.
Each antimuscarinic substance was administered in uniformly graduated dosages by intravenous route 15 minutes before the administration of oxotremorine. Control groups were given the solvent and suspension agent in corresponding amounts instead of the test substance.
The results were expressed as the percentage inhibition of the oxotremorine effect (percentage of the animals without the symptom in question). The ED50 values were determined using the method of LITCHFIELD and WILCOXON (J. Pharmacol. Exp. Ther. 96, 99, 1949).

[3] = molecular target: T1, muscarinic receptors (smooth muscle from fundus of stomach) (Rattus norvegicus, UniProt P10980); assay: Muscarinic receptor binding (inhibition of specific 3H-N-methylscopolamine binding), smooth muscle from fundus of stomach; parameters: species or system rat (male Sprague-Dawley)
T1 construct: Smooth muscle of the fundic section of the stomach was separated from the gastric mucosa; from tissue; host or cells: fundic smooth muscle homogenate of the stomach of male Sprague-Dawley rats
T1 sequence (P10980 1-466): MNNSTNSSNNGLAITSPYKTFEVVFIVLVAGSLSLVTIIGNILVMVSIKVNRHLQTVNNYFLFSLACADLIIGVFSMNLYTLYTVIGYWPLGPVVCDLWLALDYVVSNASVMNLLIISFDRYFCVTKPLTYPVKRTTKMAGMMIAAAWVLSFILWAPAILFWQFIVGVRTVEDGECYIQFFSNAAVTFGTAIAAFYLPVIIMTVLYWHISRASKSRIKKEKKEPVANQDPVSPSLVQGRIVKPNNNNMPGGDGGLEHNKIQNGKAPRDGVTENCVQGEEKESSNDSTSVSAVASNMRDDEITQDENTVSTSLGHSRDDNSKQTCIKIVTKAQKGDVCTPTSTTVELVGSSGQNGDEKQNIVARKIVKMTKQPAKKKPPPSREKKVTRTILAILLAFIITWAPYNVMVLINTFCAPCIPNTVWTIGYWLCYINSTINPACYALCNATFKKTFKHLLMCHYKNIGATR
Procedure: as §1, §2, §3
Smooth muscle from the funding of the stomach: 1:100.
The homogenized organ preparations were incubated in an Eppendorf centrifugal tube at 30° C. with a specific concentration of the radioligand and a concentration series of the non-radioactive test substances. The period of incubation was 45 minutes. 0.3N molar ^3 H-N-methylscopolamine (^3 H-NMS) was used as the radioligand. After the incubation had been stopped by centrifuging at 14,000 g, the radioactivity in the pellet was determined. It represents the sum of specific and non-specific binding of ^3 H-NMS. The proportion of non-specific binding was defined as the radioactivity which was bound in the presence of 1μ molar quinuclidinyl benzylate. Four measurements were taken in each case. The IC50 values of the non-labelled test substances were determined graphically. They represent the concentration of test substance at which the specific binding of ^3 H-NMS to the muscarinic receptors in the various organs was inhibited by 50%.

[4] = Mydriasis (effect on pupil size); details: rat, in vivo, iv, pupil size observed for ten minutes
Procedure: The effect of the test substances on the pupil size in rats was investigated as follows:
The substances were administered intravenously to groups of ten animals in at least three uniformly graduated dosages. The pupil size was then observed for ten minutes to see if there were any changes (the occurrence of mydriasis or miosis), and the test was carried out blind, i.e., the investigator was not aware of the preliminary treatment received by the animals. The percentage of test animals in which mydriasis occurred was determined. The ED50 values were again determined according to LITCHFIELD and WILCOXON (see above).

Q: For CN1CCC(NC(=O)C2c3ccccc3NC(=O)c3ccccc32)CC1 (centres unmarked) [A, 5,11-Dihydro-11-[[(1-methyl-4-piperidinyl)-amino]-carbonyl]-6H-dibenz[b,e]azepin-6-one], which IC50 [1] is on record?
A: Its IC50 is 40 nM.

Q: What about the ED50 [2] of the same molecule?
A: The ED50 was 0.19 mg/kg.

Q: And the IC50 [3]?
A: The IC50 was 700 nM.

Q: What about the ED50 at 10 min [4] of the same molecule?
A: Its ED50 at 10 min is 0.075 mg/kg.

Q: For CN1CCC(CC(=O)C2c3ccccc3NC(=O)c3ccccc32)CC1 (centres unmarked) [B, 5,11-Dihydro-11-[(1-methyl-4-piperidinyl)-acetyl]-6H-dibenz[b,e]azepin-6-one], which IC50 [1] is on record?
A: The IC50 was 25 nM.

Q: What about the ED50 [2] of the same molecule?
A: Its ED50 is 0.186 mg/kg.

Q: And the IC50 [3]?
A: Its IC50 is 150 nM.

Q: And the ED50 at 10 min [4]?
A: Its ED50 at 10 min is 0.179 mg/kg.

Q: Which ED50 [2] does the source give for CN1CCN(CC(=O)C2c3ccccc3NC(=O)c3ccccc32)CC1 (centres unmarked) [C, 5,11-Dihydro-[(4-methyl-1-piperazinyl)-acetyl]-6H-dibenz[b,e]azepin-6-one] here?
A: Its ED50 is 0.335 mg/kg.

Q: What about the IC50 [3] of the same molecule?
A: Its IC50 is 400 nM.

Q: What about the ED50 at 10 min [4] of the same molecule?
A: The ED50 at 10 min was 0.161 mg/kg.

From US4567178A, “Substituted 5,11-dihydro-6H-dibenz[b,e]azepin-6-ones and pharmaceutical compositions containing same” (Dr. Karl Thomae GmbH, priority 1984, dated 1986)
